Assay results reported in US6288091A, “Antiherpes virus compounds and methods for their preparation and use” (Boehringer Ingelheim Ltd., priority 1999, dated 2001).

Assays:
[1] = test system: HSV-1 strain F or KOS; assay: Inhibition of herpes simplex virus (HSV-1) replication in cell culture (BHK-21 cells, glycoprotein C ELISA); type: cell-based
Outline: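 BHK-21 clone 13 cells infected with HSV-1 F or KOS at MOI 0.05 PFU/cell for 1 h at 37°, washed, then treated with compound in α-MEM/2% FBS for 24 h. Late glycoprotein C quantified by ELISA (mAb C11, HRP/OPD, 450 nm); EC50 from % inhibition.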

[2] = biological target: T1, HSV-1 helicase-primase (Human herpesvirus 1, UniProt P10189+P10236); assay: HSV-1 DNA-dependent ATPase assay (inhibition of HSV-1 helicase-primase); type: biochemical
T1 construct: made in house; host or cells: Sf21 insect cells triply infected with recombinant baculoviruses (UL5, UL8, UL52)
Outline: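 Holoenzyme (UL5/UL8/UL52) expressed in baculovirus-infected Sf21 cells and purified, used at 3 μg/mL with 4 mM ATP and 25 μM primed M13 ssDNA in HEPES pH 7.5, 5.5 mM MgCl2, 3.3% DMSO. Incubated 20 min at 34°. Released phosphate read by malachite green at 650 nm, and activity taken from net absorbance with versus without inhibitor.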

[3] = Human alphaherpesvirus 1, BHK-21, Group 1 Table 1 entries
[4] = Human alphaherpesvirus 1, BHK-21, Group 1 Table 5 entries
[5] = Human alphaherpesvirus 1, BHK-21, Group 1 Table 2 entries
[6] = Group 1 Table 2 entries (Q = CH2)
[7] = Human alphaherpesvirus 1, BHK-21, Group 1 Table 3 entries

T1 sequence (P10192 whole entry): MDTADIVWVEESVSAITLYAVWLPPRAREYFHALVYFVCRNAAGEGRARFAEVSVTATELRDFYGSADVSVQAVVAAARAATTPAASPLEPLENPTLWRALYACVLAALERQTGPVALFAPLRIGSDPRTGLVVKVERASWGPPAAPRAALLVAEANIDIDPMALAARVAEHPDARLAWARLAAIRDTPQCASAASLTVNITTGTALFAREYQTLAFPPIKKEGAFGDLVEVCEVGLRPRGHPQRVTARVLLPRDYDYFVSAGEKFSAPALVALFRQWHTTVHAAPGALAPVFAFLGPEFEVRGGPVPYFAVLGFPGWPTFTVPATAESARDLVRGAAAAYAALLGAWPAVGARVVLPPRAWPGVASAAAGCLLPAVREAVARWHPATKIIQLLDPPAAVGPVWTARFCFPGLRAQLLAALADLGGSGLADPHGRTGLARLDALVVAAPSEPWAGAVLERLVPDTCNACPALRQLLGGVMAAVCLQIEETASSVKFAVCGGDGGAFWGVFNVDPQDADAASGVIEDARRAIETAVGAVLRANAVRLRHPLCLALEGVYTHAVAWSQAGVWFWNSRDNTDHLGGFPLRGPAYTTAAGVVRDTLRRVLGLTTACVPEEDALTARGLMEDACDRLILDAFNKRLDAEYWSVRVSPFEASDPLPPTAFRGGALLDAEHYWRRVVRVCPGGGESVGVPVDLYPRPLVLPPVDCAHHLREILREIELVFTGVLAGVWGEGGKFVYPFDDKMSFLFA
T1 sequence (P10236 whole entry): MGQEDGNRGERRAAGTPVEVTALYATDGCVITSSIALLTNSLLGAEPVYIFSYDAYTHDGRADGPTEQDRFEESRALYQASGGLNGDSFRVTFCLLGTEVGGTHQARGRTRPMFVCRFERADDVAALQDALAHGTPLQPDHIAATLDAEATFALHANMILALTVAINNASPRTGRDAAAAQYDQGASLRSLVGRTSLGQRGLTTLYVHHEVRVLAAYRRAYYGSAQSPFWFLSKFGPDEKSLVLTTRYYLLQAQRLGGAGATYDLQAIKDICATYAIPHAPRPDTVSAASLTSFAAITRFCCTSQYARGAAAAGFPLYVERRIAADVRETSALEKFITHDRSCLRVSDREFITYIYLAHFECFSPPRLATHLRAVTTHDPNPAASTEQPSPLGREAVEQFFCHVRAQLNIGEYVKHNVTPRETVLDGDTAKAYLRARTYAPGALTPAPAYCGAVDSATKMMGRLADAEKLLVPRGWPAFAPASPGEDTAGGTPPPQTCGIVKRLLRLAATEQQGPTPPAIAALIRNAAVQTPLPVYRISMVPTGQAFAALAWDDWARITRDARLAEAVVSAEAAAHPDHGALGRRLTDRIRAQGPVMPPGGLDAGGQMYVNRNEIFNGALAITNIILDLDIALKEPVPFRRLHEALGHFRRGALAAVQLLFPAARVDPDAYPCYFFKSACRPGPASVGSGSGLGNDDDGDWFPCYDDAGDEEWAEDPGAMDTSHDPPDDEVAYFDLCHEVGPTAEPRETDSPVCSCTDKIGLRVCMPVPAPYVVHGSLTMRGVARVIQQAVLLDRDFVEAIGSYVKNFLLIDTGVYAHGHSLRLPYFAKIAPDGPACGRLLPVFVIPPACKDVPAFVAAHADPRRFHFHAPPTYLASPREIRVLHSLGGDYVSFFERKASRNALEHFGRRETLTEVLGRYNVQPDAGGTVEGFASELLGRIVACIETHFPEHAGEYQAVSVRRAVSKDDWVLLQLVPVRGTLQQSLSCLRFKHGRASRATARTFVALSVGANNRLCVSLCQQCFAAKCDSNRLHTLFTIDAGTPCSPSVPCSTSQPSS
T1 sequence (P10189 whole entry): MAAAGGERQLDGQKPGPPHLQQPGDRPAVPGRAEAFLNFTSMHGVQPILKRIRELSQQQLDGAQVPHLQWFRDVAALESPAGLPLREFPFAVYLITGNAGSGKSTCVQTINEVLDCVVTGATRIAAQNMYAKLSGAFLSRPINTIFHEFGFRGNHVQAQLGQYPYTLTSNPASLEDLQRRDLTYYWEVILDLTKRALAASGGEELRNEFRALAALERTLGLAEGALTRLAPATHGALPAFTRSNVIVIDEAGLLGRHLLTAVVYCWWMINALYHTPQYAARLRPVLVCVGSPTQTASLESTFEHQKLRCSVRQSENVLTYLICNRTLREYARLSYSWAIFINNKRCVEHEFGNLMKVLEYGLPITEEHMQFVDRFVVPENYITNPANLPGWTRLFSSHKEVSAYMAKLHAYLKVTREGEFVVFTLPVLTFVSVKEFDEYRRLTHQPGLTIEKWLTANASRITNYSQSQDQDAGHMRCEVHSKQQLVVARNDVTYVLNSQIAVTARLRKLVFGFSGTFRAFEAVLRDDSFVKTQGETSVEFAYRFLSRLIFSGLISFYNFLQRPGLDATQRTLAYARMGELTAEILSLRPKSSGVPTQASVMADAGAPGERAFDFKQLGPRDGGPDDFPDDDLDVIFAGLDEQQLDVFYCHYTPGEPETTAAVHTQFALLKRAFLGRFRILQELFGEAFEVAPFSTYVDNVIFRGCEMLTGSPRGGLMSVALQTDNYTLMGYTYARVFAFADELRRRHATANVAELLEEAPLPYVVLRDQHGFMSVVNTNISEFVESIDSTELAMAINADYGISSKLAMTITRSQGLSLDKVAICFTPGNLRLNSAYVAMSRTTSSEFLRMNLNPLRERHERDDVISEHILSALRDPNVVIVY

SMILES | EC50 [1, 3] [µM] | IC50 ([2]; Group 1 Table 1 entries) [µM] | further results
Nc1nc(-c2ccc(NC(=O)CN(CCc3ccccn3)C(=O)C3CCCC3)cc2)cs1 [Example 79] | 0.16 | 0.84 | 
CN[C@@H](Cc1ccccc1)C(=O)Nc1ccc(-c2csc(N)n2)cc1 [Example 8] |  |  | EC50 [1, 4]: 14 µM; IC50 ([2]; Group 1 Table 5 entries): 45 µM
Nc1nc(-c2ccc(NC(=O)CN(Cc3ccccc3)C(=O)c3ccccc3)cc2)cs1 [Example 23] | 0.007 | 0.072 | 
C[C@@H](c1ccccc1)N(CC(=O)Nc1ccc(-c2csc(N)n2)cc1)C(=O)c1ccncc1 [Example 58] | 0.04 | 0.19 | 
CC(C)C(=O)N(CC(=O)Nc1ccc(-c2csc(N)n2)cc1)Cc1ccccc1 [Example 43] | 0.13 | 1.6 | 
Nc1nc(-c2ccc(NC(=O)CN(CC3CCCCC3)C(=O)c3ccccc3)cc2)cs1 [Example 60] | 0.54 | 1.5 | 
Nc1nc(-c2ccc(NC(=O)CN(Cc3ccccc3)C(=O)Cc3ccccc3)cc2)cs1 [Example 26] | 0.05 | 0.5 | 
C[C@@H](c1ccccc1)N(CCC(=O)Nc1ccc(-c2csc(N)n2)cc1)C(=O)OC(C)(C)C [Example 18] |  |  | EC50 [1, 5]: 1.6 µM; IC50 [2, 6]: 1 µM
Nc1nc(-c2ccc(NC(=O)CN(Cc3ccccc3)C(=O)C3CCCCC3)cc2)cs1 [Example 34] | 0.004 | 0.026 | 
Nc1nc(-c2ccc(NC(=O)CCN(Cc3ccccc3)Cc3ccccc3)cc2)cs1 [Example 2] |  |  | EC50 [1, 5]: 2.2 µM; IC50 [2, 6]: 1.2 µM
CC(C)(C)OC(=O)N[C@@H](Cc1ccccc1)C(=O)Nc1ccc(-c2csc(N)n2)cc1 [Example 3] |  |  | EC50 [1, 4]: 0.016 µM; IC50 ([2]; Group 1 Table 5 entries): 0.046 µM
Nc1nc(-c2ccc(NC(=O)CN(Cc3ccccc3)C(=O)CC3CCCCC3)cc2)cs1 [Example 38] | 0.016 | 0.088 | 
CN(C(=O)CN(Cc1ccccc1)C(=O)C1CCCCC1)c1ccc(-c2csc(N)n2)cc1 [Example 1] |  |  | EC50 [1, 7]: 0.016 µM; IC50 ([2]; Group 1 Table 3 entries): 0.053 µM
CC(C)(C)OC(=O)N(CCC(=O)Nc1ccc(-c2csc(N)n2)cc1)CC1CCCCC1 [Example 21] |  |  | EC50 [1, 5]: 0.45 µM; IC50 [2, 6]: 0.028 µM
Nc1nc(-c2ccc(NC(=O)CN(Cc3ccccc3)C(=O)CC3CCCC3)cc2)cs1 [Example 39] | 0.009 | 0.059 | 
CC(C)c1nc(-c2ccc(NC(=O)CN(Cc3ccccc3)C(=O)c3ccccc3)cc2)cs1 [Example 20] |  |  | EC50 [1, 7]: > 25 µM; IC50 ([2]; Group 1 Table 3 entries): > 50 µM
CC(C)(C)NC(=S)N(CC(=O)Nc1ccc(-c2csc(N)n2)cc1)Cc1ccccc1 [Example 93] | 0.12 | 0.16 | 
Nc1nc(-c2ccc(NC(=O)CN(Cc3ccccc3)S(=O)(=O)c3ccccc3)cc2)cs1 [Example 97] | 0.13 | 0.31 | 
Nc1nc(-c2ccc(NC(=O)CN(Cc3ccccc3)C(=O)C3CCCC3)cc2)cs1 [Example 36] | 0.005 | 0.041 | 
CNc1nc(-c2ccc(NC(=O)CN(Cc3ccccc3)C(=O)c3ccccc3)cc2)cs1 [Example 6] |  |  | EC50 [1, 7]: 0.012 µM; IC50 ([2]; Group 1 Table 3 entries): 0.33 µM
Nc1nc(-c2ccc(NC(=O)CCN(CC3CCCCC3)C(=O)c3cccnc3)cc2)cs1 [Example 24] |  |  | EC50 [1, 5]: 1.7 µM; IC50 [2, 6]: 1.2 µM

SMILES | EC50 [1, 3] [µM] | IC50 ([2]; Group 1 Table 1 entries) [µM] | further results
Nc1nc(-c2ccc(NC(=O)CN(Cc3ccccc3)C(=O)c3cc[n+]([O-])cc3)cc2)cs1 [Example 30] | 0.43 | 0.44 | 
Nc1nc(-c2ccc(NC(=O)CN(CC3CCCCC3)C(=O)Cc3ccccc3)cc2)cs1 [Example 77] | 0.19 | 0.37 | 
Nc1nc(-c2ccc(NC(=O)[C@H](Cc3ccccc3)NCc3ccccc3)cc2)cs1 [Example 6] |  |  | EC50 [1, 4]: 0.83 µM; IC50 ([2]; Group 1 Table 5 entries): 1.06 µM
Nc1nc(-c2ccc(NC(=O)[C@@H](Cc3ccccc3)N(Cc3ccccc3)C(=O)C3CCCCC3)cc2)cs1 [Example 9] |  |  | EC50 [1, 4]: 0.29 µM; IC50 ([2]; Group 1 Table 5 entries): 0.052 µM
O=C(CN(Cc1ccccc1)C(=O)C1CCCCC1)Nc1ccc(-c2cscn2)cc1 [Example 5] |  |  | EC50 [1, 7]: 0.012 µM; IC50 ([2]; Group 1 Table 3 entries): 0.1 µM
Nc1nc(-c2ccc(NC(=O)CN(Cc3ccc(F)cc3)C(=O)c3ccncc3)cc2)cs1 [Example 84] | 0.14 | 0.36 | 
Nc1nc(-c2ccc(NC(=O)CN(Cc3ccccc3)C(=O)c3cccnc3)cc2)cs1 [Example 28] | 0.13 | 0.43 | 
Nc1nc(-c2ccc(NC(=O)CCN(Cc3ccccc3)CC3CCCCC3)cc2)cs1 [Example 17] |  |  | EC50 [1, 5]: 1.8 µM; IC50 [2, 6]: 0.76 µM
CC(C)(C)OC(=O)N(CCC(=O)Nc1ccc(-c2csc(N)n2)cc1)C1Cc2ccccc2C1 [Example 14] |  |  | EC50 [1, 5]: 1.8 µM; IC50 [2, 6]: 1.7 µM
CN(CC(=O)Nc1ccc(-c2csc(N)n2)cc1)Cc1ccccc1 [Example 15] | 0.95 | 3.3 | 
CC(C)(C)OC(=O)N(CC(=O)Nc1ccc(-c2csc(N)n2)cc1)Cc1ccccc1 [Example 85] | 0.01 | 0.016 | 
C[C@@H](c1ccccc1)N(CC(=O)Nc1ccc(-c2csc(N)n2)cc1)C(=O)OC(C)(C)C [Example 89] | 0.036 | 0.098 | 
Nc1nc(-c2ccc(NC(=O)CN(Cc3cccnc3)C(=O)C3CCCCC3)cc2)cs1 [Example 48] | 0.04 | 0.14 | 
C[C@@H](c1ccccc1)N(CC(=O)Nc1ccc(-c2csc(N)n2)cc1)C(=O)C1CCCCC1 [Example 53] | 0.003 | 0.038 | 
CN(C)CCN(CC(=O)Nc1ccc(-c2csc(N)n2)cc1)C(=O)C1CCCCC1 [Example 140] | 9.2 | 48 | 
C[C@@H](NCCC(=O)Nc1ccc(-c2csc(N)n2)cc1)c1ccccc1 [Example 25] |  |  | EC50 [1, 5]: 2.6 µM; IC50 [2, 6]: 13.6 µM
Nc1nc(-c2ccc(NC(=O)CN(Cc3cccs3)C(=O)C3CCCCC3)cc2)cs1 [Example 51] | 0.002 | 0.063 | 
Nc1nc(-c2ccc(NC(=O)CNCc3ccccc3)cc2)cs1 [Example 1] | 2.7 | 6.4 | 
Nc1nc(-c2ccc(NC(=O)CCN(Cc3ccccc3)C(=O)c3ccccc3)cc2)cs1 [Example 3] |  |  | EC50 [1, 5]: 2.2 µM; IC50 [2, 6]: 2.1 µM
Nc1nc(-c2ccc(NC(=O)CCNCc3ccccc3)cc2)cs1 [Example 1] |  |  | EC50 [1, 5]: 6 µM; IC50 [2, 6]: 21 µM
C[C@H](c1ccccc1)N(CC(=O)Nc1ccc(-c2csc(N)n2)cc1)C(=O)C1CCCCC1 [Example 52] | 0.013 | 0.087 | 
